Results as given in patent US20160313303A1, “BICOMPATIBLE LIQUID AND METHOD FOR SCREENING SAME” (KABUSHIKI KAISHA TOYOTA CHUO KENKYUSHO, priority 2015, published 2016).
Read-outs that look alike come from different tables or passages of the source.

Legend:
[1] = system: Human airway epithelial cell line BEAS-2B; assay: Cytotoxicity test (WST-8 assay) after direct contact of test liquids with cells for about 2 hours; normalized cell survival rate; conditions: direct contact with test liquid about 2 hours, WST-8 24 hours after contact, control liquid (0.5% FBS-containing RPMI-1640) = 1
[2] = system: human airway epithelial cells Calu-3; assay: Transepithelial electric resistance (TER) of cells on porous support after contact with non-hydrophilic liquids; assay type: cell-based; conditions: Calu-3, 3 hours contact with 200 ul liquid, TER after 24 hours in fresh medium, FIG. 18
Method: In the present Example, an action of non-hydrophilic liquids having the fluorocarbon structure was evaluated using human airway epithelial cells Calu-3. As a device for evaluation, the evaluation device 20 illustrated in FIG. 16 was used. […] At the bottom of each insert, a porous support 28 is provided that can retain and cultivate cells.
Cells were inoculated on each support 28 in the insert 24 and the space in the well 22 other than the insert 24 and the cavity in the insert 24 were filled with the cell growth medium. The evaluation device 20 was then left to stand in a CO2 incubator for a few days to allow dense growth of cells on the whole upper surface of the support 28, thereby carrying out the pre-cultivation step. In the pre-cultivation step, the transepithelial electric resistance (TER) was measured over time to confirm that a barrier (coverage and functional tight junctions) was constructed on the surface of the cells that is in contact with the insert 24.
Next, a cell structure illustrated in FIG. 17 was prepared. […]
After 24 hours, the cells on the support 28 in the cell structure removed from the CO2 incubator were again measured for the transepithelial electric resistance (TER) after removal of the growth medium in order to confirm the extent of formation of the cell barrier. […]

[3] = system: leaves of Arabidopsis thaliana; assay: Soaking of plant leaves in organic solvents, observation of appearance; conditions: for change in the appearance of leaves: leaf of A. thaliana soaked in the solvent, observed after 2 hours
Method: (§1) Further, the leaves used for the test after observation were soaked in water over 16 hours followed by observation. Water was used as a control. Although water is cytotoxic to naked cells, it is not cytotoxic to cells having cell walls, and thus could be used as a control.

[4] = system: leaves of Arabidopsis thaliana
Method: as §1

[5] = system: human airway epithelial cells Calu-3; assay: WST-8 absorbance of cells on porous support after contact with solutions of PFOA in hydrofluoroether; assay type: cell-based; conditions: PFOA in hydrofluoroether (C4F9OC2H5); for absorbance (WST-8): 15 hours
Method: In the present Example, hydrofluoroether (C4F9OC2H5) was used as the non-hydrophilic liquid and perfluorooctanoic acid (PFOA) was used as the non-hydrophilic substance. Solutions of PFOA in hydrofluoroether having various PFOA concentrations ([…], 1 and 10 g/L) were prepared. The solutions correspond to the second liquid of the present disclosure.
In the similar manner as Example 4 except that the solutions of PFOA in hydrofluoroether were used, the procedure was carried out up to the pre-cultivation step. Thereafter the cultivation step was carried out by using the solutions as the second liquid and leaving the device in the CO2 incubator for 15 hours.
Thereafter […], was removed from the cavity of the insert 24, 200 μl of an aqueous solution of a medium containing WST-8 (2-(2-methoxy-4-nitrophenyl)-3(4-nitrophenyl)-5-(2,4-disulfophenyl)-2H-tetrazolium), which is a kind of a tetrazolium salt, was added and the device was let to stand in the CO2 incubator for 20 minutes for cultivation.
Thereafter 100 μl of the medium was transferred from the insert 24 of the cell structure into a microplate and the absorbance at the wavelengths 450 nm and 600 nm was measured.

In the case of `FC(F)(F)c1cccc(C(F)(F)F)c1` [S1, 1,3-Bis(Trifluoromethyl) Benzene], the “Normalized cell survival rate” value [1] is reported as 0.01.
`C[Si]1(C)O[Si](C)(C)O[Si](C)(C)O[Si](C)(C)O[Si](C)(C)O1` [S19, Decamethylcyclopentasiloxane] was tested, and the “Normalized cell survival rate” value [1] was 0.92.
For `COC(F)(F)C(F)(F)C(F)(F)C(F)(F)F` [S5, HFE-7100], the “Normalized cell survival rate” value [1] was 1.04.
For HFE-7200 [S6], the “Normalized cell survival rate” value [1] was 0.88, the “effect on cell death or intercellular tight junctions (TER)” value [2] was “had less effect on cell death or intercellular tight junctions than perfluorohexane, which effect was almost the same as the controls” and the “change in the appearance of leaves” value [3] was “did not change an appearance of leaves of A. thaliana”.
For `FC(F)(F)C(F)(F)C(F)(F)C(F)(F)C(F)(F)C(F)(F)C(F)(F)C(F)(F)Br` [S20, 1-Bromoperfluorooctane], the “Normalized cell survival rate” value [1] was 1.2.
`OCC(F)(F)C(F)(F)C(F)(F)C(F)(F)C(F)(F)C(F)F` [S4, 1H,1H,7H-Dodecafluoro-1-heptanol] was tested, and the “Normalized cell survival rate” value [1] was 0.01.
With `COC(F)(F)C(F)(F)C(F)(F)F` [S21, HFE-7000] the “Normalized cell survival rate” value [1] was 1.01.
With `CCO` [P2, Ethanol, reference compound] the “Normalized cell survival rate” value [1] was 0.01 and the “change in the appearance of leaves” value [4] was “eroded epidermal cells of the leaves of A. thaliana and caused effusion of chlorophyll”.
With `COC(F)(C(F)(F)C(F)(F)F)C(F)(C(F)(F)F)C(F)(F)F` (stereo not shown) [S7, HFE-7300] the “Normalized cell survival rate” value [1] was 0.92 and the “change in the appearance of leaves” value [3] was “did not change an appearance of leaves of A. thaliana”.
In the case of `O=C(O)C(F)(F)C(F)(F)C(F)(F)C(F)(F)C(F)(F)C(F)(F)C(F)(F)F` [PFOA, perfluorooctanoic acid], the “PFOA concentration with an action of causing cell death” value ([5]; Calu-3, 15 hours) is reported as at least 1 g/L, the “absorbance (WST-8)” value ([5]; at or above 1 g/L of PFOA) is reported as “hardly detected” and the “absorbance (WST-8)” value ([5]; until PFOA concentration 0.1 g/L) is reported as “almost at the same level”.
With `C[Si](C)(C)O[Si](C)(C)C` [S16, OS-10 (Hexamethyldisiloxane)] the “Normalized cell survival rate” value [1] was 0.
For `C[Si](C)(C)O[Si](C)(C)O[Si](C)(C)O[Si](C)(C)C` [S18, OS-30 (Decamethyltetrasiloxane)], the “Normalized cell survival rate” value [1] was 0.92.
`CC(C)=O` [P3, Acetone, reference compound] was tested, and the “Normalized cell survival rate” value [1] was 0.01, the “change in the appearance of leaves” value [3] was “eroded epidermal cells of the leaves of A. thaliana and caused effusion of chlorophyll” and the “change in the appearance of leaves after subsequent soaking in water” value ([3]; leaves after the 2 hours test soaked in water over 16 hours, compared to control water) was “caused atrophy (deformation) of leaves of A. thaliana”.
For `FC(F)(F)C(F)(F)C(F)(F)C(F)(F)C(F)(F)C(F)(F)F` [S2, Perfluorohexane, PFC 5060], the “effect on cell death or intercellular tight junctions (TER)” value [2] was “significantly promoted cell death and the like”.
In the case of `CCOCC` [P4, Diethyl ether, reference compound], the “Normalized cell survival rate” value [1] is reported as 0.01.
With `C[Si](C)(C)O[Si](C)(C)O[Si](C)(C)C` [S17, OS-20 (Octamethyltrisiloxane)] the “Normalized cell survival rate” value [1] was 0.05.
`O` [P1, Water, reference compound] was tested, and the “Normalized cell survival rate” value [1] was 0.01.
